As usually defined, the IC50 is the concentration that gives 50% inhibition.

Consider one molecule from US10201530B2, “Treatment of BRCA1-defective cancer or resistant cancers” (City of Hope, priority 2014, dated 2019).

The subject of assay [1] is UWB1.289 + BRCA1. Briefly: Cytotoxicity, UWB1.289+BRCA1 cells. It is filed as cell-based, human. The conditions noted are these: Homo sapiens, UWB1289; UWB1.289 + BRCA1 (WT); COH29 72 h; read-out: IC50, mean ± SEM. The method, then: (§1) All cell lines were acquired from the American Type Culture Collection (Manassas, Va., USA). Cells were maintained in RPMI 1640 medium (Mediatech) with 10% fetal bovine serum, 2 mM glutamine, and 100 U of penicillin and 100 μg of streptomycin per ml of medium (Sigma) at 37° C. in 5% CO2. To isolate HCC1437+BRCA1 cells, parental HCC1937 cells were transfected with pcDNA3.1 plasmid expressing full-length BRCA1 cDNA. Stable transfectant clones were selected and used for drug sensitivity assays. For stable transfection, cells at 30-40% confluence were incubated overnight with […] of plasmid DNA, using FUGENE® 6 transfectin reagent (Roche Molecular Biochemical, Monza, Italy) according to the manufacturer's instructions. Cells were then selected in puromycin (1 μg/ml) (Invitrogen life Technologies, La Jolla, Calif., USA.) After 20 to 30 days, viable puromycin-resistant colonies from HCC1937 transfections were expanded and screened. The clones that stably expressed […] and retained growth potential were assayed for BRCA1 expression by Western blot analysis. By Western blot analysis, we evaluated the restoration of BRCA1 expression in the puromycin-resistant cDNA/transfectant cells.
The MTT cytotoxicity assay was performed by incubating with MTT and monitoring the MTT formazan formed by viable cells with a microplate reader at a wavelength of 560 nm; the survival, ratio was determined using the formula: (Atest−Ablank)/(Acontrol−Ablank)×100%. The cytotoxicity was determined in 96-well plates using the semiautomatic fluorescence-based Digital Imaging Microscopy System (DIMSCAN). DIMSCAN uses digital imaging microscopy to quantify viable cells, which selectively accumulate FDA (fluorescein diacetate; Alfa Aesar, Ward Hill, Mass.). DIMSCAN is capable of measuring cytotoxicity over a 4 log dynamic range by quantifying total fluorescence per well (which is proportional to the number of viable cells) after elimination of the background fluorescence by digital thresholding and eosin Y (Mallinckrodt Baker, Center Valley, Pa.) quenching. Cells were seeded into 96-well plates in 100 μL of complete medium at 2,000 to 5,000 cells per well depending on cell line growth rate. After overnight incubation, test compound was added to each well at various concentrations in 50 μL of culture medium. […] Total fluorescence per well was then measured using DIMSCAN, and the results were expressed as the ratio of the fluorescence in treated wells to the fluorescence in untreated wells (survival fraction).

For assay [2], the system named is HCC1937 + BRCA1. The experiment in a line: Cytotoxicity, HCC1937+BRCA1 cells. The class given is cell-based, human. The conditions noted are these: Homo sapiens; HCC1937 + BRCA1, triple negative; COH29 72 h. The method, then:
as §1
(§2) The MTT cytotoxicity assay was performed by incubating with MTT and monitoring the MTT formazan formed by viable cells with a microplate reader at a wavelength of 560 nm; the survival, ratio was determined using the formula: (Atest−Ablank)/(Acontrol−Ablank)×100%. The cytotoxicity was determined in 96-well plates using the semiautomatic fluorescence-based Digital Imaging Microscopy System (DIMSCAN). DIMSCAN uses digital imaging microscopy to quantify viable cells, which selectively accumulate FDA (fluorescein diacetate; Alfa Aesar, Ward Hill, Mass.). DIMSCAN is capable of measuring cytotoxicity over a 4 log dynamic range by quantifying total fluorescence per well (which is proportional to the number of viable cells) after elimination of the background fluorescence by digital thresholding and eosin Y (Mallinckrodt Baker, Center Valley, Pa.) quenching. […]

The subject of assay [3] is SKBR3. The experiment in a line: Cytotoxicity, SKBR3 cells. The class given is cell-based, human. The conditions noted are these: Homo sapiens, SK-BR-3; SKBR3, ER− PR(−) HER2+. How it is done:
as §1, §2

The test system of assay [4] is PARP1 protein. Briefly: PARP1 protein level by Western blot. The class given is cell-based, human. The method, then:
For subcellular fractionation, cells were trypsinized and washed with cold PBS solution twice. […] Following centrifugation at 1,000 g for 5 min, the supernatant was collected (i.e., cytoplasmic fraction) and pellets were washed with the same buffer twice. The washed samples were extracted for 40 min on ice with fractionation buffer containing 0.5% NP-40 for nuclear fraction. All the samples were sonicated and clarified by centrifugation at 16,000 g for 15 min. Protein concentrations of all fractions were determined with Bio-Rad Protein Assay (Bio-Rad Laboratories, Hercules, Calif.). Immunoblotting was performed as described previously (21,22). Briefly, equal amounts of boiled protein samples were subjected to SDS-polyacrylamide gel electrophoresis (PAGE) and transferred onto nitrocellulose membranes (Bio-Rad Laboratories). Membranes were blocked for 1 hour in 3% BSA in Tris buffered saline containing 0.05% Tween 20 (TBST) and incubated for 1 hour with primary antibody (1:500 or 1:1000) diluted in TBST containing 1% BSA. After two washes with TBST, membranes were incubated for 1 hour with horseradish peroxidase-conjugated secondary Abs (1:3000 dilution) at room temperature. The immunoblots were visualized on film with the West-Q chemi-luminescence kit (GenDEPOT, Barker, Tex.).
(Immunoblotting shows a protein as a band on a membrane.)

The subject of assay [5] is NHEJ pathway. Briefly: NHEJ DNA repair, GFP-based chromosomal reporter EJ5-GFP. It is filed as cell-based. The settings on record: EJ5-GFP reporter cells, 24 h. How it is done:
The EJ2 cells were generated to evaluate Alt-NHEJ through monitoring the fluorescence intensity of GFP and EJ5 cells were used to determine NJEJ as described previously. (23) Cells were seeded into 6-well plate and treated with COH29 or cisplatin at different concentration for 24 hours. The cells were then trypsinized, washed, and analyzed by flow cytometry.

Assay [6] addresses RR (Homo sapiens, UniProt P31350). The settings on record: previously reported, ref (6); cited from earlier work.

RR, sequence (P31350 whole entry): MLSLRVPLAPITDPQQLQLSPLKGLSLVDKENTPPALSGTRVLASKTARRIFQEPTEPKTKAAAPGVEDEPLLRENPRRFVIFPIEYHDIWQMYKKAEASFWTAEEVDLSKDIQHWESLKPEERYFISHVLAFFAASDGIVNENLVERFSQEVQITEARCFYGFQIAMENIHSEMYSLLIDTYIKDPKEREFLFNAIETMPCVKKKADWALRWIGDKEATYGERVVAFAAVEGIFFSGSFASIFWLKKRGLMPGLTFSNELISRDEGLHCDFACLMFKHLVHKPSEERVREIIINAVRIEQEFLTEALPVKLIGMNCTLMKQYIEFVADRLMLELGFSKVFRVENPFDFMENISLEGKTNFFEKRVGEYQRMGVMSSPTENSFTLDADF

For `O=C(Nc1nc(-c2ccc(O)c(O)c2)c(-c2ccccc2)s1)c1ccc(O)c(O)c1` [COH29], the IC50 in assay [1] is 23.5 ± 2.38 µM; in assay [2], 35 ± 3.63 µM; in assay [3], 13.28 ± 0.03 µM. Further, the “effect on PARP1 protein level” value in assay [4] (HCC1937 BRCA1-defective cells, 24 h) is “attenuated PARP1 protein”; in assay [4] (HCC1937 cells irrespective of BRCA1 status, 4 h treatment), “Little reduction”. For the same molecule, the NHEJ repair efficiency entry in assay [5] is on record as “little effect on NHEJ repair”. Further, the “effect of RR inhibition on dNTP” value in assay [6] was “causes dNTP depletion in vivo”.
